The values below come from patent publication US5843402A, “Synthetic peptides for use in thrombus detection” (Antisoma Research Limited, priority 1989, dated 1998).

The subject of assay [1] is activated platelets in whole blood (ADP stimulated blood). Description: Binding of radiolabelled peptides to ADP stimulated blood. The method, then:
(§1) The results (Table 2) indicate that all four peptides can bind platelets in ADP stimulated blood and that higher incorporation can be achieved In clotted blood.
(§2) Iodogen tubes were prepared by dissolving Iodogen (1, 3, 4, 6-Tetrachloro-3α, 6α-diphenylglycouril) in chloroform at a concentration of 1 mg.ml-^1. Aliquots of 50 μl (50 μg Iodogen) were dispensed into polypropylene cryo-tubes and the chloroform evaporated to dryness. These tubes were then stored dessicated at -20° C. until required.
(§3) Prior to radiolabelling the peptides were dissolved in phosphate buffered saline (PBS) at a concentration of 50 mg.ml-^1. RGDSYC and […] were first dissolved in a small volume of dimethyl sulphoxide (DMSO) such that the final concentration of DMSO in PBS was 1% v/v.
(§4) Iodogen tubes were equilibrated to room temperature before the addition of 200 μl peptide solution and 1-10 μl of ^123 I (in aqueous solution). The reaction mixture was then left for 15min at room temperature with occasional shaking. Following the incubation period the reaction mixture was removed and passed through a Sephadex G10 column which had been equilibrated with PBS. The column, which separates radiolabelled peptide from free iodine was eluted with PBS and 2 ml fractions collected. Radioactivity in the fractions was measured and the eluted peptides, represented by the first radioactive peak from the column, collected and stored at 4° C. until required.

For assay [2], the system named is ADP (1 × 10^-5 M)-induced platelet aggregation. Description: Inhibition of ADP-induced platelet aggregation. In kind it is cell-based. As for the experimental part: The effect of these peptides on ADP-induced platelet aggregation was determined and compared with peptide RGDS which is known to inhibit platelet aggregation.
The next assay concerns clotted blood. In words: Binding of radiolabelled peptides to clotted blood. As for the experimental part: as §1, §2, §3, §4

In the case of RGDSCRGDSY, the bound peptide amounted to 0.01 ng in assay [1] (1 ng radiolabelled peptide); 0.85 ng in assay [1] (10 ng radiolabelled peptide); 9.07 ng in assay [1] (100 ng radiolabelled peptide); 0.28 ng in the assay with clotted blood (1 ng radiolabelled peptide); 2.64 ng with clotted blood (10 ng radiolabelled peptide); 29.33 ng in the assay on clotted blood (100 ng radiolabelled peptide). For the same sequence, the “percentage inhibition of ADP-induced platelet aggregation” value in assay [2] (peptide 0.1 mM) turned out to be 17%; in assay [2] (peptide 0.2 mM), 57%; in assay [2] (peptide 0.4 mM) it was 79%.
